Results taken from paper PMC3227869 (Biochemistry, 2009).

Assays:
Format in all cases: biochemical
E. coli GCH I (FolE) = E. coli GCH I (FolE) (Escherichia coli, UniProt P0A6T5); experiment: HPLC of product; settings: anaerobic
mouse PTPS (mPTPS) = molecular target: T1, mouse PTPS (mPTPS) (Mus musculus, UniProt Q9R1Z7); experiment: HPLC of product, UV-visible spectra; settings: anaerobic; H2NTP generated in situ from GTP by FolE; control reaction
T1 sequence (Q9R1Z7 1-144): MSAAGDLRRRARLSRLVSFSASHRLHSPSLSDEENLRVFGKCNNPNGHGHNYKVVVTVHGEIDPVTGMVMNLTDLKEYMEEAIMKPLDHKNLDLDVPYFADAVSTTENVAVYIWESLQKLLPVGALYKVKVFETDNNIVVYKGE

E. coli QueD = molecular target: T2, E. coli QueD (Escherichia coli, UniProt P65870); experiment: HPLC of product, UV-visible spectra; settings: anaerobic (95% N2:5% H2)
T2 sequence (P65870 1-121): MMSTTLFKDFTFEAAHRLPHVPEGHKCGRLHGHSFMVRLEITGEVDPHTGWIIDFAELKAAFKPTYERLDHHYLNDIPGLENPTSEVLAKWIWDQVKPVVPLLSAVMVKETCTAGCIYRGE

Sequence of E. coli GCH I (FolE) (P0A6T5 2-222): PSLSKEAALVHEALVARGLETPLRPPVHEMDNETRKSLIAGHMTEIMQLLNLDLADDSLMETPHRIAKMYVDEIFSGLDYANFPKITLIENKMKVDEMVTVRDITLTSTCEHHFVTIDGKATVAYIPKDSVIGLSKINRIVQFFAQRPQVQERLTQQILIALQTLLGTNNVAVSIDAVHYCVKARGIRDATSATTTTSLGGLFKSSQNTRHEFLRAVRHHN

Structure (SMILES): Nc1nc2c(ncn2[C@@H]2O[C@H](COP(=O)(O)OP(=O)(O)OP(=O)(O)O)[C@@H](O)[C@H]2O)c(=O)[nH]1 [GTP]
- HPLC of product (E. coli GCH I (FolE)): H2NTP could be produced quantitatively from GTP

Structure (SMILES): Nc1nc2c(c(=O)[nH]1)N=C([C@H](O)[C@H](O)COP(=O)(O)OP(=O)(O)OP(=O)(O)O)CN2 [H2NTP]
- HPLC of product, UV-visible spectra (mouse PTPS (mPTPS)): H2NTP was quantitatively converted to PPH4

Structure (SMILES): C[C@H](O)C(=O)C1=Nc2c(nc(N)[nH]c2=O)NC1 [sepiapterin]
- HPLC of product, UV-visible spectra (E. coli QueD): the same product forms when sepiapterin is the substrate for QueD
